Measurements as given in patent US20190358371A1, “HEMOSTATIC DEVICES AND METHODS OF USE” (priority 2016, published 2019).

Legend:
[1] = in vitro elution of rifampin and minocycline from p22-27.5 polymers with TXA in release media (Example 15); assay type: physicochemical; conditions: PBS pH 7.4, TXA 0, 0.05 or 5 mg/mL, over 25 hours
Experimental: B1=PBS pH 7.4; B2=PBS, pH 7.4+TXA (0.05 mg/mL); B3=PBS, pH 7.4+TXA (5 mg/mL).

[2] = stability of rifampin and minocycline in PBS with and without tranexamic acid (Example 14); assay type: physicochemical; conditions: room temperature (about 23 C) and 37 C
[3] = test system: blood; test: time required to induce blood clotting in vitro (Examples 17 and 18); assay type: biochemical
Experimental: Tests were conducted to compare the time required to induce blood clotting in vitro when different amounts of hemostatic agent is administered in the presence of TYRX (degradable mesh coated with P22-27.5 containing rifampin and minocycline), as shown in FIG. 35.
Tests were conducted to compare the time required for different hemostatic agents to induce blood clotting in vitro versus the time required to induce blood clotting in vitro when no hemostatic agent is administered. In particular, the time required to induce blood clotting was plotted for blood alone, TYRX), Surgicel, TYRX with 1.6 mg of TXA, 1.2 mg of TXA alone and TYRX with 200 mg of TXA. In this example, TYRX refers to a Glycoprene mesh that is coated with P22-27.5 (a polymer in the P22-X family) containing Rifampin and Minocycline.

[4] = given preoperatively; cited from earlier work

SMILES | elution rate from p22-27.5 polymer, effect of TXA in the release media [1] | percentage area in mixtures of rifampin and minocycline in PBS with versus without tranexamic acid [2] | time required to induce blood clotting in vitro ([3]; 1.2 mg of TXA alone) | Clotting time with higher amounts of TXA ([3]; 1.6 mg TXA vs 200 mg of TXA, in the presence of TYRX) | time to reach plasma concentrations [4] [min]
CO[C@H]1/C=C/O[C@@]2(C)Oc3c(C)c(O)c4c(O)c(c(/C=N/N5CCN(C)CC5)c(O)c4c3C2=O)NC(=O)/C(C)=C\C=C\[C@H](C)[C@H](O)[C@@H](C)[C@@H](O)[C@@H](C)[C@H](OC(C)=O)[C@@H]1C [rifampin] | not affected | substantially the same | – | – | –
NC[C@H]1CC[C@H](C(=O)O)CC1 [tranexamic acid] | – | – | about 19 minutes | increased | 5 to 15
